In US9913858B2, “Prevention and treatment of toxicosis” (priority 2013, dated 2018):

Columns and labels:
[1] = system: lolitrem B toxicosis (Rye Grass Staggers); assay: Clinical and neurological signs in sheep fed lolitrem B-containing toxic feed with or without potassium bromide; assay type: in vivo; conditions: sheep, Group 5: prophylactic oral KBr only
Description: Animals were exposed to a controlled diet containing 0.16 mg/kg body weight (BW) lolitrem B toxin rising to 0.27 mg/kg BW after 21 days exposure to toxic feed. Toxin was delivered as perennial rye grass seed (GA66 AR98, Grasslanz Technology Ltd, NZ) containing very high levels of lolitrem B toxin (11 ppm DM) as a component of the animal's feed intake.
On entry to the trial, all animals receiving toxic feed were exposed to a diet containing experimental ryegrass seed with a final lolitrem B concentration of 0.08 mg/kg LW, lucerne chaff and molasses 30% w/v for 3 days. After this induction period, the toxin content of the feed was increased to 0.16 mg/kg LW for the duration of the trial. […] Ryegrass seed constituted up to 65% of available Feed on Offer (FOO) by dry weight contributing a metabolisable energy of 12.1 Mj/kg DM.
At entry to the trial, all animals were subjected to a full clinical examination. Live weight was recorded. Venous blood and urine samples were collected for laboratory. Animals were also subjected to gait analysis, neurological examination including proprioceptive testing, cranial nerve examination and papillary light and menace reflexes. Electromyography (EMG) of tricep and neck muscles was performed. Gait analysis (see below) was repeated at three day intervals until onset of significant clinical signs and/or gait abnormality at which point animals were subjected to gait analysis daily. Gait analysis was recorded on video each occasion.
General clinical signs were also noted on a daily basis; these included observations of nervousness or agitation, changes in normal placement of body, limb or head position changes in faecal consistency, feeding behaviour or water consumption, observeable tremor of the body or head, eye position (strabismus) and movement (nystagmus), locomotory disturbances, or any other clinical changes worthy of note. Feed and water intake was monitored daily for the duration of the trial. Heart rate, respiration rate at rest and rectal temperature were also monitored daily.
Prophylactic sheep received a split loading dose of 300 mg/kg on day 1, 120 mg/kg (100 mg LD+20 mg/kg daily maintenance dose) on day 2, 120 mg/kg on day 3 and 20 mg/kg daily for the duration of the trial. An acute treatment dose of 300 mg/kg LW was used for the trial. Both prophylactic and acute treatment doses were envisaged to give serum concentrations of 750 to 1000 μg/ml for the duration of the initial weeks of the trial.
Group 1—Negative Control: lucerne chaff only;
Group 2—Positive Control: lucerne chaff containing 0.16 mg/kg LW lolitrem B;
Prophylactic treatment sheep (Groups 4 & 5) received a split loading dose of 300 mg/kg on day 1 of the trial, 120 mg/kg (100 mg LD 20 mg/kg daily maintenance dose) on day 2, 120 mg/kg on day 3 and 20 mg/kg daily thereafter. Acute therapy sheep were dosed with a single dose of 300 mg/kg on day of falling.
End of the trial was defined for Groups 2 and 3 as date of falling. Group 1 animals entered the end of trial protocol with their Group 2 counterparts. Group 4 and 5 animals entered the end of trial protocol after 22 days. This end of trial protocol consisted of the following analysis: • On Day 1: animals were subjected to a full clinical examination, gait analysis, urine and blood collection, neurological examination and EMG. • On Day 2: further gait analysis was recorded, • On Day 3: animals were again subjected to full clinical examination, gait analysis, urine and blood collection, neurological examination and EMG as well as live weight recorded prior to necropsy.

[2] = Serum and cerebrospinal fluid bromide concentrations in the sheep trial; assay type: in vivo; conditions: sheep, sheep
Description: Venous blood samples collected for biochemical analysis and haematocrit (PCV), and urine for USG, at three specific time points during the experiment for all animals: 1) on entry to the trial; 2) on date of entry to the end of trial protocol and, 3) on day of necropsy.
A full clinical examination was performed prior to euthanasia. At euthanasia, 100 I.U. heparin (Provet Riverina Pty Ltd) was injected into the jugular vein, followed shortly by Lethabarb (20 mL/40 kg LW). Immediately after euthanasia, the ventral articulation of C1 was exposed and cerebrospinal fluid (CSF) collected using a 23 g needle. The head was then removed and subjected to perfusion fixation. Briefly, the carotid arteries were exposed and a small catheter inserted and ligated to secure the perfusion lines. Two liters of 0.1% phosphate buffered saline (PBS) containing 3000 I.U of heparin/L was then slowly perfused via the ligated vessels at a pressure of 90 mm Hg using a Microgon peristaltic Pump (Microgon, Laguna Hills, Calif.). Once complete this was replaced with 4% paraformaldehyde (Sigma-Alrich) in 0.1% PBS and a further two liters allowed to perfuse slowly through the tissues of the head. Once complete, catheters were removed and the whole head placed at 4° C. overnight to complete fixation. Twenty-four hours post perfusion fixation the brain was removed from the skull and placed in 10% formal saline for storage until dissection for processing to wax sections.
Absorbance was measured with a spectrophotometer at 440 nm. […] The lower limit of quantification (LOQ) was 25 μg/mL.

sheep = conditions: 120 mg/kg bromide
Description: KBr solution was administered via an orogastric tube, then flushed with 500 mL water. Blood samples were collected at 0, 1, 2, 3, 4, 6, 8, 10, 12, 24 h, then at 12 h intervals to 240 h, then at 24 h intervals to 336 h. A final sample was taken at 504 h. When collecting blood samples at 1 h through to 10 h the rumen was auscultated, over the caudo-dorsal blind sack, to determine if the high salt load affected rumen motility.

[3] = system: lolitrem B toxicosis (Rye Grass Staggers); assay: Gait analysis and time to falling; assay type: in vivo, sheep
Description: Gait analysis was performed on entry to the trial and at designated time points throughout the trial as described above. To achieve this, animals were moved from their individual pens to an external yard in their cohort groups (five animals, one from each treatment). Animals were then encouraged to move at a run, initially in a group and then individually, for a minimum of three minutes per animal whilst their movement was captured on video and gait observations recorded.
Once all animals had been analysed the whole cohort was returned to their individual pens. Gait abnormalities such as stumbling, falling or disorientation were noted, including observation of Type 1 or Type 2 gait changes as described in Combs et, al., (2014). Type I movement disorder is defined as an impaired alternating movement (dysdiadochokinesia), bunny-hopping gait and failure to maintain an appropriate direction. Type 2 movement disorder is defined by increasing rigidity of limbs on forced movement resulting finally in tonic fore and hind limb extension with the animal collapsing into sternal or lateral recumbency (Combs, Rendell et at 2014). Scores between those denoted above were considered as a gradation between the stated clinical observations. Analysis of gait was performed using the following scale in Table 2 and a composite score noted for each animal for each day during the end of trial protocol. A total score out of 30 was determined for each animal. The higher the score the greater the locomotory disturbance. Time to falling was determined post trial by analysis of video material,
Animals that met the entry criteria (severe Type 2 gait abnormality and falling) were submitted to the end-of-trial protocol. […] Animals were subjected to the following tests on days 1 and 3: gait analysis, full neurological examination, venous blood and urine sampling and EMG. Only gait analysis was performed on day 2.

Br [bromide]
animals showing evidence of mild anxiolysis [1]: 519 | Altered stance, number of animals affected ([1]; no toxic feed, 22 days): 4 | Fine tremor, number of animals affected ([1]; no toxic feed, 22 days): one | Kp at 48 hours ([2]; cerebrospinal fluid and serum, oral, 300 mg/kg, mean ratio of serum bromide:CSF bromide, Group 3, acute bromide treatment plus lolitrem B, 48 hours): 0.81 | Kp at 22 days ([2]; cerebrospinal fluid and serum, oral, mean ratio of serum bromide:CSF bromide, Group 4, bromide prophylactic treatment plus lolitrem B): 0.91 | Kp at 22 days ([2]; cerebrospinal fluid and serum, oral, mean ratio of serum bromide:CSF bromide, Group 5, bromide prophylactic controls): 0.74 | serum bromide, factor Group 4 over Group 5 ([2]; prophylactic bromide plus lolitrem B versus prophylactic bromide alone, 22 days): 1.27 | adverse reactions (sheep; either treatment group (IV, PO)): No adverse reactions were noted | tranquilising effect, subjective observation (sheep; IV group): mild tranquilising effect | neurological effects (sheep; PO group): no discernable neurological effects | rumen motility (sheep; PO group): no observed alteration | time to falling ([3]; printed as Group 2 Day 2, 24 hours after single oral dose of bromide 300 mg/kg LW): 145.66 ± 22.07 s | time to falling ([3]; printed as Group 2 Day 3, 48 hours after single oral dose of bromide 300 mg/kg LW): 124.75 ± 22.06 s | time to falling ([3]; printed as Group 2 day 1, intoxicated sheep before single oral dose of bromide 300 mg/kg LW): 52.44 s
